The text below walks through data of the NIST ThermoML archive (doi:10.1016/j.jct.2015.07.046).

Each structure is given as a SMILES string. Numbers after ± are expanded uncertainties.

This data set is described as follows: activity coefficient (dimensionless); of the first substance listed, at infinite dilution; xn = mol fraction of the nth substance listed. The note with it: 101.3 kPa, Liquid, Chromatography, x1 = 0.

Turning to `Cc1ccccc1C` [1,2-dimethylbenzene] + CCn1cc[n+](C)c1.COP(=O)([O-])OC, the activity coefficient reads like this: (313.15 K) 10.2 ± 1.1; (323.15 K) 9.8 ± 1; (333.15 K) 9.59 ± 1; (343.15 K) 9.3 ± 0.98; (353.15 K) 9.14 ± 0.96; (363.15 K) 9 ± 0.95.
Consider `Cc1ccccc1C` [1,2-dimethylbenzene] + COP(=O)([O-])OC.Cn1cc[n+](C)c1, for which the activity coefficient (313.15 K) turned out to be 12.7 ± 1.3; the activity coefficient (323.15 K) was 12.5 ± 1.3; the activity coefficient (333.15 K) was determined as 12.4 ± 1.3; the activity coefficient (343.15 K) was 12.2 ± 1.3; the activity coefficient (353.15 K) came out at 12.1 ± 1.3; the activity coefficient (363.15 K) turned out to be 12 ± 1.3.
Turning to `Cc1cccc(C)c1` [1,3-dimethylbenzene] + CCn1cc[n+](C)c1.COP(=O)([O-])OC, the activity coefficient is 12.4 ± 1.3 (313.15 K); 11.8 ± 1.2 (323.15 K); 11.2 ± 1.2 (333.15 K); 10.8 ± 1.1 (343.15 K); 10.5 ± 1.1 (353.15 K); 9.99 ± 1.1 (363.15 K).
On to `Cc1cccc(C)c1` [1,3-dimethylbenzene] + COP(=O)([O-])OC.Cn1cc[n+](C)c1, for which the activity coefficient (313.15 K) was determined as 14.6 ± 1.5; the activity coefficient (323.15 K) turned out to be 14.4 ± 1.5; the activity coefficient (333.15 K) came to 14.2 ± 1.5; the activity coefficient (343.15 K) is 14.2 ± 1.5; the activity coefficient (353.15 K) was 14.1 ± 1.5; the activity coefficient (363.15 K) stood at 13.9 ± 1.5.
As for `Cc1ccc(C)cc1` [1,4-dimethylbenzene] + CCn1cc[n+](C)c1.COP(=O)([O-])OC, the activity coefficient reads like this: (313.15 K) 12.1 ± 1.3; (323.15 K) 11.5 ± 1.2; (333.15 K) 10.9 ± 1.1; (343.15 K) 10.5 ± 1.1; (353.15 K) 9.99 ± 1.1; (363.15 K) 9.53 ± 1.
As to `Cc1ccc(C)cc1` [1,4-dimethylbenzene] + COP(=O)([O-])OC.Cn1cc[n+](C)c1, the activity coefficient came out at 13.8 ± 1.4 (313.15 K); 13.6 ± 1.4 (323.15 K); 13.5 ± 1.4 (333.15 K); 13.4 ± 1.4 (343.15 K); 13.2 ± 1.4 (353.15 K); 13.1 ± 1.4 (363.15 K).
As for `CC(C)CC(C)(C)C` [2,2,4-trimethylpentane] + CCn1cc[n+](C)c1.COP(=O)([O-])OC, the activity coefficient reads like this: (313.15 K) 183 ± 19; (323.15 K) 170 ± 18; (333.15 K) 158 ± 17; (343.15 K) 143 ± 15; (353.15 K) 132 ± 14; (363.15 K) 119 ± 13.
As for `CC(C)CC(C)(C)C` [2,2,4-trimethylpentane] + COP(=O)([O-])OC.Cn1cc[n+](C)c1, the activity coefficient (313.15 K) was found to be 318 ± 34; the activity coefficient (323.15 K) came out at 301 ± 32; the activity coefficient (333.15 K) amounted to 284 ± 30; the activity coefficient (343.15 K) is 270 ± 28; the activity coefficient (353.15 K) worked out at 244 ± 26; the activity coefficient (363.15 K) amounted to 229 ± 24.
As to `c1ccccc1` [benzene] + CCn1cc[n+](C)c1.COP(=O)([O-])OC, the activity coefficient is 3.51 ± 0.37 (313.15 K); 3.33 ± 0.35 (323.15 K); 3.2 ± 0.34 (333.15 K); 3.12 ± 0.33 (343.15 K); 3.02 ± 0.32 (353.15 K); 2.87 ± 0.3 (363.15 K).
Take `c1ccccc1` [benzene] + COP(=O)([O-])OC.Cn1cc[n+](C)c1: the activity coefficient reads like this: (313.15 K) 3.64 ± 0.38; (323.15 K) 3.62 ± 0.38; (333.15 K) 3.61 ± 0.38; (343.15 K) 3.59 ± 0.38; (353.15 K) 3.57 ± 0.38; (363.15 K) 3.56 ± 0.37.
Regarding `C1CCCCC1` [cyclohexane] + CCn1cc[n+](C)c1.COP(=O)([O-])OC, the activity coefficient (313.15 K) amounted to 53.9 ± 5.7; the activity coefficient (323.15 K) is 48.9 ± 5.2; the activity coefficient (333.15 K) turned out to be 44 ± 4.6; the activity coefficient (343.15 K) came to 40.6 ± 4.3; the activity coefficient (353.15 K) turned out to be 37.7 ± 4; the activity coefficient (363.15 K) is 32.9 ± 3.5.
For `C1CCCCC1` [cyclohexane] + COP(=O)([O-])OC.Cn1cc[n+](C)c1, the activity coefficient reads like this: (313.15 K) 58.4 ± 6.2; (323.15 K) 56 ± 5.9; (333.15 K) 52.6 ± 5.5; (343.15 K) 50.9 ± 5.4; (353.15 K) 48 ± 5.1; (363.15 K) 45.7 ± 4.8.
On to `C1=CCCCC1` [cyclohexene] + CCn1cc[n+](C)c1.COP(=O)([O-])OC, for which the activity coefficient by setting is: (313.15 K) 25.4 ± 2.7; (323.15 K) 22.4 ± 2.4; (333.15 K) 20 ± 2.1; (343.15 K) 18.7 ± 2; (353.15 K) 16.9 ± 1.8; (363.15 K) 15.5 ± 1.6.
`C1=CCCCC1` [cyclohexene] + COP(=O)([O-])OC.Cn1cc[n+](C)c1: the activity coefficient (313.15 K) stood at 32.7 ± 3.5; the activity coefficient (323.15 K) stood at 31.6 ± 3.3; the activity coefficient (333.15 K) came out at 30.7 ± 3.2; the activity coefficient (343.15 K) was 30.1 ± 3.2; the activity coefficient (353.15 K) turned out to be 29.1 ± 3.1; the activity coefficient (363.15 K) is 28.3 ± 3.
Consider `CCCCCCCCCC` [decane] + CCn1cc[n+](C)c1.COP(=O)([O-])OC, for which the activity coefficient runs as follows: (313.15 K) 430 ± 45; (323.15 K) 388 ± 41; (333.15 K) 354 ± 37; (343.15 K) 316 ± 33; (353.15 K) 294 ± 31; (363.15 K) 245 ± 26.
On to `CCCCCCCCCC` [decane] + COP(=O)([O-])OC.Cn1cc[n+](C)c1, for which the activity coefficient came out at 503 ± 53 (313.15 K); 480 ± 51 (323.15 K); 466 ± 49 (333.15 K); 448 ± 47 (343.15 K); 431 ± 46 (353.15 K); 414 ± 44 (363.15 K).
With `CCCCCCC` [heptane] + CCn1cc[n+](C)c1.COP(=O)([O-])OC, the activity coefficient (313.15 K) worked out at 162 ± 17; the activity coefficient (323.15 K) came out at 151 ± 16; the activity coefficient (333.15 K) was 138 ± 15; the activity coefficient (343.15 K) amounted to 124 ± 13; the activity coefficient (353.15 K) was 111 ± 12; the activity coefficient (363.15 K) is 97.7 ± 10.
Regarding `CCCCCCC` [heptane] + COP(=O)([O-])OC.Cn1cc[n+](C)c1, the activity coefficient was found to be 297 ± 31 (313.15 K); 279 ± 29 (323.15 K); 258 ± 27 (333.15 K); 243 ± 26 (343.15 K); 231 ± 24 (353.15 K); 216 ± 23 (363.15 K).
In the case of `CCCCCC` [hexane] + CCn1cc[n+](C)c1.COP(=O)([O-])OC, the activity coefficient reads like this: (313.15 K) 139 ± 15; (323.15 K) 122 ± 13; (333.15 K) 107 ± 11; (343.15 K) 87.6 ± 9.2; (353.15 K) 72.2 ± 7.6; (363.15 K) 61.5 ± 6.5.
As for `CCCCCC` [hexane] + COP(=O)([O-])OC.Cn1cc[n+](C)c1, the activity coefficient reads like this: (313.15 K) 260 ± 27; (323.15 K) 246 ± 26; (333.15 K) 230 ± 24; (343.15 K) 218 ± 23; (353.15 K) 203 ± 21; (363.15 K) 187 ± 20.
